The record followed here is patent publication US11891386B2, “Indole compounds and their use” (ARIAGEN, INC., priority 2017, dated 2024).

Data set [1] is described as follows: Hepatocyte intrinsic clearance assay, mouse hepatocytes. It is filed as in vitro ADME. Particulars: male, IRC/CD-1, cryopreserved mouse hepatocytes; Mouse Hepatocytes, 1 μM test compound. The text has this:
(§1) The liver is an important organ in the body for drug metabolism. This Example describes hepatocyte intrinsic clearance assays using both human and mouse hepatocytes to evaluate the metabolic stability of the indole compounds disclosed herein. The parameters measured include t1/2 (half-life), CLint (intrinsic clearance), and EH (hepatic extraction ratio).
(§2) Testosterone (Lot FE111011-01) was obtained from Cerilliant (Round Rock, TX). 7-hydroxycoumarin (Lot 11631ED) was obtained from Sigma Aldrich (St. Louis, MO). Cryopreserved human hepatocytes pooled from ten donor males (X008001), cryopreserved male IRC/CD-1 mouse hepatocytes (M005052), INVITROGRO HI Medium (incubation), and INVITROGRO HT Medium (thawing) were obtained from Bioreclamation IVT (Baltimore, MD). All solvents were obtained from commercial sources and used without further purification.
(§3) Each test compound was prepared as a 1 mM stock solution in DMSO. A 2 μM solution of test compound and positive controls were prepared in INVITROGRO HI Medium (incubation). These solutions were pre-warmed in a sterile incubator set to maintain 37° C., 5% CO2, and 98% humidity. Cryopreserved hepatocytes were prepared at a concentration of 2×10^6 living cells/mL in incubation media and pre-warmed in the incubator. The compound solutions and hepatocyte mixtures were then combined at a ratio of 1:1 (v:v). The final volume of the reaction mixture was 750 μL, containing 1 μM test compound (10 μM for 7-hydroxycoumarin) and […]. The reaction mixture was placed in the incubator on a plate shaker. After 0, 15, 30, 60, 90, and 120 minutes of incubation, 100 μL of reaction mixtures were removed from the incubation plate and mixed with 150 μL of ice-cold acetonitrile in a designated well of a 96-well crash plate. The 96-well crash plate was placed on ice for 15 min, and samples were centrifuged (3,600 RPM, 10 min, 4° C.) to precipitate protein. The supernatants were diluted 1:1 (v:v) with water containing 0.15 μM verapamil and/or 1 μM tolbutamide (internal standards for positive and negative modes, respectively) in a 96-well shallow injection plate. This plate was sealed for LC-MS analysis. All measurements were done in duplicate.
(§4) The residual compound remaining (% R) was determined from LC-MS peak areas by comparison to the zero time point. Metabolic half-life (t1/2) and intrinsic clearance (CLint) values were calculated from the slope of the plot of ln (% R) vs. time and the concentration of hepatocytes present in the incubation. Percent remaining at 60 minutes was calculated by plugging in the 60 minute value into the slope equation generated by the percent remaining time points.
(§5) In vivo hepatic clearance CLH was calculated using the well stirred liver model according to the following equation:
(§6) [formula] where QH is the total liver blood flow, fu is unbound fraction of the drug, and CL′int is defined as follows: CL′int=CLint×(10^6 cells/g of liver weight)×(g liver weight/kg of body weight). In the first approximation, used in this study, fu=1.
(§7) Hepatic extraction ratio EH was calculated using the following equation:
(§8) [formula] Corresponding physiological parameters used in calculations for all species are shown below in Table 5.

In data set [2] the test system is mouse hepatocytes. Described as above. In kind it is in vitro ADME. The settings on record: for CLint (μL/min/10^6 ells) / EH (%) hepatic extraction ratio: Mouse Hepatocytes; for CLint (μL/min/10^6 ells): 1 μM test compound; for EH (%) hepatic extraction ratio: well stirred liver model, fu=1; for clearance / metabolic profile, in words / EH lower as compared to ARI-002, in words / times lower clearance as compared to ARI-002: mouse hepatocytes.
Excerpt: as §1, §2, §3, §4, §5, §6, §7, §8

As usually defined, the half-life is how long it takes for the measured level to halve. Lower therefore signals rapid decline. As to `CNC(=O)c1csc(C(=O)c2c[nH]c3ccc(Cl)cc23)n1` [ARI-049, 2-(5-chloro-1H-indole-3-carbonyl)-N-methylthiazole-4-carboxamide], in data set [1], the half-life at 1 μM was determined as 1.59 h. In data set [2], the “CLint (μL/min/10^6 ells)” value worked out at 7.3 μL/min/10^6 ells; the “EH (%) hepatic extraction ratio” value was determined as 30%; the “clearance / metabolic profile, in words” value is “lower clearance and EH value”.
Take `Cc1noc(-c2csc(C(=O)c3c[nH]c4ccccc34)n2)n1` [ARI-031, (1H-indol-3-yl)(4-(3-methyl-1,2,4-oxadiazol-5-yl)thiazol-2-yl)methanone]: in data set [1], the half-life at 1 μM came out at 11.7 h. In addition, in data set [2], the “CLint (μL/min/10^6 ells)” value came to 1.0 μL/min/10^6 ells; the “EH (%) hepatic extraction ratio” value was 6%; the “clearance / metabolic profile, in words” value is on record as “low clearance”.
Turning to `CCC(=O)c1csc(C(=O)c2c[nH]c3c(F)cccc23)n1` [ARI-140, 1-(2-(7-fluoro-1H-indole-3-carbonyl)thiazol-4-yl)propan-1-one], in data set [1], the half-life at 1 μM was found to be 7.5 h. Also, in data set [2], the “CLint (μL/min/10^6 ells)” value came to 1.5 μL/min/10^6 ells and the “EH (%) hepatic extraction ratio” value amounted to 8.3%.
In the same order, the values of `COC(=O)c1csc(C(=O)c2c[nH]c3ccc(F)cc23)n1` [ARI-066, methyl 2-(5-fluoro-1H-indole-3-carbonyl)thiazole-4-carboxylate] are 0.223 h, 51.9 μL/min/10^6 ells and 75%.
Compound `O=C(c1nc(-c2nnco2)cs1)c1c[nH]c2ccccc12` [ARI-056, (4-(1,3,4-oxadiazol-2-yl)thiazol-2-yl)(1H-indol-3-yl)methanone] came in with a half-life at 1 μM in data set [1] of 0.447 h. Further, in data set [2], the “CLint (μL/min/10^6 ells)” value was determined as 25.8 μL/min/10^6 ells and the “EH (%) hepatic extraction ratio” value was 60%.
Compound `CNC(=O)c1csc(C(=O)c2c[nH]c3ccc(F)cc23)n1` [ARI-065, 2-(5-fluoro-1H-indole-3-carbonyl)-N-methylthiazole-4-carboxamide] yielded a half-life at 1 μM in data set [1] of 1.62 h. In data set [2], the “CLint (μL/min/10^6 ells)” value was 7.1 μL/min/10^6 ells; the “EH (%) hepatic extraction ratio” value came to 29%; the “clearance / metabolic profile, in words” value is “lower clearance and EH value”.
Compound `NCc1nc(-c2csc(C(=O)c3c[nH]c4c(F)cccc34)n2)no1` [ARI-146, (4-(5-(aminomethyl)-1,2,4-oxadiazol-3-yl)thiazol-2-yl)(7-fluoro-1H-indol-3-yl)methanone] yielded a half-life at 1 μM in data set [1] of 1.67 h. Further, in data set [2], the “CLint (μL/min/10^6 ells)” value is recorded as 6.9 μL/min/10^6 ells and the “EH (%) hepatic extraction ratio” value was determined as 29%.
For `Cc1nc(-c2csc(C(=O)c3c[nH]c4ccccc34)n2)no1` [ARI-030, (1H-indol-3-yl)(4-(5-methyl-1,2,4-oxadiazol-3-yl)thiazol-2-yl)methanone], the half-life at 1 μM in data set [1] came to 0.285 h. Besides, in data set [2], the “CLint (μL/min/10^6 ells)” value worked out at 40.5 μL/min/10^6 ells and the “EH (%) hepatic extraction ratio” value turned out to be 70%.
The corresponding values for `CCC(=O)c1csc(C(=O)c2c[nH]c3cccc(F)c23)n1` [ARI-142, 1-(2-(4-fluoro-1H-indole-3-carbonyl)thiazol-4-yl)propan-1-one] are 1.1 h, 11 μL/min/10^6 ells and 38%.
`Nc1nnc(-c2csc(C(=O)c3c[nH]c4c(F)cccc34)n2)o1` [ARI-118, (4-(5-amino-1,3,4-oxadiazol-2-yl)thiazol-2-yl)(7-fluoro-1H-indol-3-yl)methanone] gave a half-life at 1 μM in data set [1] of 14 h. Besides, in data set [2], the “CLint (μL/min/10^6 ells)” value is reported as 0.8 μL/min/10^6 ells; the “EH (%) hepatic extraction ratio” value turned out to be 4.6%; the “clearance / metabolic profile, in words” value is reported as “low clearance”.
Take `CCC(=O)c1csc(C(=O)c2c[nH]c3cc(F)c(F)cc23)n1` [ARI-149, 1-(2-(5,6-difluoro-1H-indole-3-carbonyl)thiazol-4-yl)propan-1-one]: the half-life at 1 μM in data set [1] worked out at 3.97 h. In addition, in data set [2], the “CLint (μL/min/10^6 ells)” value was 2.9 μL/min/10^6 ells and the “EH (%) hepatic extraction ratio” value was determined as 15%.
The corresponding values for `Cc1nnc(-c2csc(C(=O)c3c[nH]c4ccccc34)n2)o1` [ARI-060, (1H-indol-3-yl)(4-(5-methyl-1,3,4-oxadiazol-2-yl)thiazol-2-yl)methanone] are 2.3 h, 5.0 μL/min/10^6 ells and 23%.
`COC(=O)c1csc(C(=O)c2c[nH]c3ccccc23)n1` [ARI-001, ITE] gave a half-life at 1 μM in data set [1] of 0.0917 h. Also, in data set [2], the “CLint (μL/min/10^6 ells)” value came out at 585.7 μL/min/10^6 ells and the “EH (%) hepatic extraction ratio” value is 87%.
On to `CCC(=O)c1csc(C(=O)c2c[nH]c3ccc(F)cc23)n1` [ARI-087, 1-(2-(5-fluoro-1H-indole-3-carbonyl)thiazol-4-yl)propan-1-one], for which the half-life at 1 μM in data set [1] worked out at 1.84 h. Further, in data set [2], the “CLint (μL/min/10^6 ells)” value amounted to 6.3 μL/min/10^6 ells; the “EH (%) hepatic extraction ratio” value was 27%; the “EH lower as compared to ARI-002, in words” value is on record as “three times lower”; the “times lower clearance as compared to ARI-002” value is listed as 153 times.
In the case of `CNC(=O)c1csc(C(=O)c2c[nH]c3ccccc23)n1` [ARI-004], in data set [1], the half-life at 1 μM is 0.0467 h. In data set [2], the “CLint (μL/min/10^6 ells)” value was 1,174.2 μL/min/10^6 ells and the “EH (%) hepatic extraction ratio” value is given as 93%.
`NCc1nnc(-c2csc(C(=O)c3c[nH]c4c(F)cccc34)n2)o1` [ARI-145, (4-(5-(aminomethyl)-1,3,4-oxadiazol-2-yl)thiazol-2-yl)(7-fluoro-1H-indol-3-yl)methanone] yielded a half-life at 1 μM in data set [1] of 2.27 h. Moreover, in data set [2], the “CLint (μL/min/10^6 ells)” value came to 5.1 μL/min/10^6 ells and the “EH (%) hepatic extraction ratio” value amounted to 23%.
The corresponding values for `CCC(=O)c1csc(C(=O)c2c[nH]c3ccc(Cl)cc23)n1` [ARI-067, 1-(2-(5-chloro-1H-indole-3-carbonyl)thiazol-4-yl)propan-1-one] are 3.54 h, 3.3 μL/min/10^6 ells and 16%.
Turning to `Nc1nnc(-c2csc(C(=O)c3c[nH]c4ccccc34)n2)o1` [ARI-083, (4-(5-amino-1,3,4-oxadiazol-2-yl)thiazol-2-yl)(1H-indol-3-yl)methanone], in data set [1], the half-life at 1 μM is 16.1 h. In addition, in data set [2], the “CLint (μL/min/10^6 ells)” value came out at 0.7 μL/min/10^6 ells; the “EH (%) hepatic extraction ratio” value is 4%; the “clearance / metabolic profile, in words” value was “lower clearance and hepatic extraction parameters than ARI-060”.
In data set [1], `Nc1nnc(-c2csc(C(=O)c3c[nH]c4ccccc34)n2)s1` [ARI-090, (4-(5-amino-1,3,4-thiadiazol-2-yl)thiazol-2-yl)(1H-indol-3-yl)methanone] showed a half-life at 1 μM of 4.7 h. Moreover, in data set [2], the “CLint (μL/min/10^6 ells)” value is listed as 2.5 μL/min/10^6 ells and the “EH (%) hepatic extraction ratio” value came out at 13%.
`CCC(=O)c1csc(C(=O)c2c[nH]c3cc(F)ccc23)n1` [ARI-143, 1-(2-(6-fluoro-1H-indole-3-carbonyl)thiazol-4-yl)propan-1-one] registered a half-life at 1 μM in data set [1] of 5.1 h. Moreover, in data set [2], the “CLint (μL/min/10^6 ells)” value turned out to be 2.3 μL/min/10^6 ells; the “EH (%) hepatic extraction ratio” value is on record as 12%; the “EH lower as compared to ARI-002, in words” value is on record as “eight times lower”; the “times lower clearance as compared to ARI-002” value worked out at 418 times.
In the case of `Nc1nnc(-c2csc(C(=O)c3c[nH]c4cc(Cl)c(Cl)cc34)n2)o1` [ARI-120, (4-(5-amino-1,3,4-oxadiazol-2-yl)thiazol-2-yl)(5,6-dichloro-1H-indol-3-yl)methanone], the half-life at 1 μM in data set [1] was 13.5 h. Moreover, in data set [2], the “CLint (μL/min/10^6 ells)” value was found to be 0.9 μL/min/10^6 ells; the “EH (%) hepatic extraction ratio” value is listed as 4.8%; the “clearance / metabolic profile, in words” value is “low clearance”.
For `Nc1nnc(-c2csc(C(=O)c3c[nH]c4ccc(F)cc34)n2)o1` [ARI-148, (4-(5-amino-1,3,4-oxadiazol-2-yl)thiazol-2-yl)(5-fluoro-1H-indol-3-yl)methanone], the half-life at 1 μM in data set [1] turned out to be 3.17 h. In data set [2], the “CLint (μL/min/10^6 ells)” value is 3.6 μL/min/10^6 ells and the “EH (%) hepatic extraction ratio” value came to 18%.
